Measurements: patent US9249125B2, “Pyrazole derivatives as p38 MAP inhibitors” (RESPIVERT LIMITED, priority 2012, dated 2016)

Assays:
p38 MAPKα = p38 MAPKα (Homo sapiens (Human), UniProt Q16539); assay: p38 MAPKα enzyme inhibition (FRET, Z-LYTE); assay type: biochemical
cSrc = cSrc (Homo sapiens (Human), UniProt P12931); assay: c-Src enzyme inhibition (FRET, Z-LYTE); assay type: biochemical
Method in brief: (§1)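 Z-LYTE FRET kinase assay: enzyme (3000 or 2000 ng/mL stock, respectively) preincubated 2 h at RT with compound (4–0.004 μg/mL stocks), then FRET peptide plus ATP (800 μM stock for c-Src, 60 μM for Syk) added for 1 h. Protease development 1 h; phosphorylation from coumarin/fluorescein emission ratio.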

Syk = Syk (Homo sapiens (Human), UniProt P43405); assay: Syk enzyme inhibition (FRET, Z-LYTE); assay type: biochemical
Method in brief: as §1

GSK3α = GSK3α (Homo sapiens (Human), UniProt P49840); assay: GSK 3α enzyme inhibition (FRET, Z-LYTE); assay type: biochemical
Method in brief: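 Phosphorylation was read as the donor (coumarin) to acceptor (fluorescein) ratio after a 1 hr protease step destroying non-phosphorylated peptide. Before this, compound (4–0.004 μg/mL stocks) sat 2 hr at RT with GSK3α (500 ng/mL stock), followed by 1 hr kinase reaction with 8 μM peptide and 40 μM ATP stocks.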

[1] = tested on: LPS-induced TNFα release in d-U937 cells; assay: LPS-induced TNFα release in d-U937 cells; assay type: cell-based; settings: Homo sapiens, dU937, relative to 10 μg/mL BIRB796, read-out: LPS Induced Release of Cytokine in d-937 Cells TNFα REC50
Method in brief: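 Human monocytic U937 cells were differentiated to macrophage-type cells with PMA (100 ng/mL) for 48 to 72 hr, pre-treated with test compound for 2 hr, then stimulated 4 hr with E. coli O111:B4 LPS (0.1 μg/mL). Supernatant TNFα and IL-8 were measured by sandwich ELISA; REC50 came from concentration-response curves.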

[2] = tested on: LPS-induced IL-8 release in d-U937 cells; assay: LPS-induced IL-8 release in d-U937 cells; assay type: cell-based; settings: Homo sapiens, dU937, read-out: LPS Induced Release of Cytokine in d-937 Cells IL-8 IC50
Method in brief: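 Read-out: TNFα and IL-8 released into supernatant, sandwich ELISA, expressed as inhibition versus vehicle at each dose and fitted to give REC50. Cells were PMA-differentiated U937 (100 ng/mL, 48–72 hr), compound-exposed 2 hr before a 4 hr LPS stimulus (0.1 μg/mL).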

[3] = tested on: Poly I:C-induced ICAM-1 expression in BEAS2B cells; assay: Poly I:C-induced ICAM-1 expression in BEAS2B cells; assay type: cell-based; settings: Homo sapiens, BEAS-2B, read-out: Poly IC induced ICAM1 in BEAS2B IC50
Method in brief: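 Cell-based ELISA read at 450 nm minus 655 nm, divided by crystal violet OD595 to normalize for cell number, gave ICAM-1 levels. Readout was taken 18 hr after poly I:C (1 μg/mL, Oligofectamine) transfection of human bronchial BEAS2B cells pretreated 2 hr with test compound.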

d-U937 cells = assay: Cell viability: MTT assay; assay type: cell-based, human; settings: 1 μg/mL
Method in brief: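 MTT read-out (1 h, absorbance 550 nm) on d-U937 cells after pre-incubation with 1 or 10 μg/mL compound under two regimes: 4 h, 5% FCS, or 24 h, 10% FCS RPMI1640. Values are percent loss of viability relative to vehicle (0.5% DMSO), so increases are reported as negative.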

GSK3α, sequence (P49840 whole entry): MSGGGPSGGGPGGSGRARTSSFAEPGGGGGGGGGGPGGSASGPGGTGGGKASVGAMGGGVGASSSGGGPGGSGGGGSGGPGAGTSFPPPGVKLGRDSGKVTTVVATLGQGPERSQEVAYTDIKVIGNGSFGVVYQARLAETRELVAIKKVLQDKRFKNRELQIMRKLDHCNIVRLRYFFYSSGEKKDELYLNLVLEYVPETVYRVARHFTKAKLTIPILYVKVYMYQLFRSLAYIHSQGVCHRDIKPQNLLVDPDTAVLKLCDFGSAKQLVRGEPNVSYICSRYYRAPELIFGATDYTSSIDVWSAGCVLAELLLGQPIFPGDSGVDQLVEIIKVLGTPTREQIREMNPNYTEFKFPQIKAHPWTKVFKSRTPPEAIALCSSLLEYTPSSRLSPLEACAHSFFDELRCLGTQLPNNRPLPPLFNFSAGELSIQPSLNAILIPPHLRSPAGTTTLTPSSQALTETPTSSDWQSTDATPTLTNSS
cSrc, sequence (P12931 whole entry, looked up): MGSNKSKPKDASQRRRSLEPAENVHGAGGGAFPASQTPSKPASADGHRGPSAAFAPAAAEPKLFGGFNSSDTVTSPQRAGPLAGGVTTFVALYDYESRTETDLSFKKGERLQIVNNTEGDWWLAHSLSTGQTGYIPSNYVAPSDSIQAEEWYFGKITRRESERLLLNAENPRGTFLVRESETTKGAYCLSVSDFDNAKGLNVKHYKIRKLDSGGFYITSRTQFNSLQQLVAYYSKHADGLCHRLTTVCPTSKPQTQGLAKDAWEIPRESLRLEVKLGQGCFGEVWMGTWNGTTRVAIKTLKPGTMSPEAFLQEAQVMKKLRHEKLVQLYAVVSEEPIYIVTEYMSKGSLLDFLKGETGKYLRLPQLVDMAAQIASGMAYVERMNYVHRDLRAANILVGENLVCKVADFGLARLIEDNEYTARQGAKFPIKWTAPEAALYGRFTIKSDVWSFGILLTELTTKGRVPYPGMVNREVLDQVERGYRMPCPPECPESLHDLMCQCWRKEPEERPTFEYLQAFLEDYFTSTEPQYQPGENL
p38 MAPKα, sequence (Q16539 whole entry): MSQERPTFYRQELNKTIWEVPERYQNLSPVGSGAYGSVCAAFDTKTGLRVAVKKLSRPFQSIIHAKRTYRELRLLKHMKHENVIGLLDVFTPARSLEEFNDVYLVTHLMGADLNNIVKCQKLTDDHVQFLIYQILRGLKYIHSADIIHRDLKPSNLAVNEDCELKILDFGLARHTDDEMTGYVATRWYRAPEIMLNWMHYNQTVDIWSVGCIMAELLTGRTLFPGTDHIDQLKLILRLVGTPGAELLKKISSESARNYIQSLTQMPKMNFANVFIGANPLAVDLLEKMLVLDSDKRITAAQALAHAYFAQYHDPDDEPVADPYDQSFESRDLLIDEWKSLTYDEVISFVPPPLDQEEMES

IC50 (p38 MAPKα) | IC50 (cSrc) | IC50 (Syk) | IC50 (GSK3α) | EC50 [1] | IC50 [2] | Structure (SMILES) | IC50 [3] | MTT Assay Cell viability at time point in d-U937 cells 4 h (d-U937 cells) | MTT Assay Cell viability at time point in d-U937 cells 24 h (d-U937 cells)
14 nM | < 1 nM | 10 nM | 184 nM | 1.5 nM | 2.8 nM | CC(C)(C)c1cc(NC(=O)Nc2ccc(Oc3ccnc(Nc4ccc5c(c4)C(=O)NC5)n3)c3ccccc23)n(-c2ccc(OCCN3CCOCC3)cc2)n1 [Example 63, 1-(3-(tert-butyl)-1-(4-(2-morpholinoethoxy)phenyl)-1H-pyrazol-5-yl)-3-(4-((2-((3-oxoisoindolin-5-yl)amino)pyrimidin-4-yl)oxy)naphthalen-1-yl)urea] | 0.3 nM | −ve (−ve and +ve indicate that the value is below and above respectively, the no significant effect threshold, defined as 30% inhibition at 1 μg/mL at the time point indicated.) | −ve (−ve and +ve indicate that the value is below and above respectively, the no significant effect threshold, defined as 30% inhibition at 1 μg/mL at the time point indicated.)
27 nM | < 1 nM | 1 nM | 597 nM | 3.6 nM | 192 nM | CC(C)(C)c1cc(NC(=O)Nc2ccc(Oc3ccnc(Nc4ccc5c(cnn5CCN5CCOCC5)c4)n3)c3ccccc23)n(-c2ccc(OCCN3CCOCC3)cc2)n1 [Example 74, 1-(3-(tert-butyl)-1-(4-(2-morpholinoethoxy)phenyl)-1H-pyrazol-5-yl)-3-(4-((2-((1-(2-morpholinoethyl)-1H-indazol-5-yl)amino)pyrimidin-4-yl)oxy)naphthalen-1-yl)urea] | 2.7 nM | −ve (−ve and +ve indicate that the value is below and above respectively, the no significant effect threshold, defined as 30% inhibition at 1 μg/mL at the time point indicated.) | −ve (−ve and +ve indicate that the value is below and above respectively, the no significant effect threshold, defined as 30% inhibition at 1 μg/mL at the time point indicated.)
18 nM | < 1 nM | 2 nM | 589 nM | 1.4 nM | 1.2 nM | Cc1cc(Nc2nccc(Oc3ccc(NC(=O)Nc4cc(C(C)(C)C)nn4-c4cccc(CN5CCCC5=O)c4)c4ccccc34)n2)cc2cn[nH]c12 [Example 10, 1-(3-(tert-Butyl)-1-(3-((2-oxopyrrolidin-1-yl)methyl)phenyl)-1H-pyrazol-5-yl)-3-(4-((2-((7-methyl-1H-indazol-5-yl)amino)pyrimidin-4-yl)oxy)naphthalen-1-yl)urea] | 3.9 nM | −ve (−ve and +ve indicate that the value is below and above respectively, the no significant effect threshold, defined as 30% inhibition at 1 μg/mL at the time point indicated.) | −ve (−ve and +ve indicate that the value is below and above respectively, the no significant effect threshold, defined as 30% inhibition at 1 μg/mL at the time point indicated.)
3 nM | 2 nM | 7 nM | 1090 nM | 7.5 nM | 18.4 nM | CC(C)(C)c1cc(NC(=O)Nc2ccc(Oc3cc(Nc4ccc5[nH]ncc5c4)ncn3)c3ccccc23)n(-c2ccc(=O)n(CCO)c2)n1 [Example 14, 1-(4-((6-((1H-Indazol-5-yl)amino)pyrimidin-4-yl)oxy)naphthalen-1-yl)-3-(3-(tert-butyl)-1-(1-(2-hydroxyethyl)-6-oxo-1,6-dihydropyridin-3-yl)-1H-pyrazol-5-yl)urea] | 52.4 nM | −ve (−ve and +ve indicate that the value is below and above respectively, the no significant effect threshold, defined as 30% inhibition at 1 μg/mL at the time point indicated.) | −ve (−ve and +ve indicate that the value is below and above respectively, the no significant effect threshold, defined as 30% inhibition at 1 μg/mL at the time point indicated.)
74 nM | 19 nM | 15 nM | 4700 nM | 1.1 nM | 2.3 nM | COCCOc1cccc(-n2nc(C(C)(C)C)cc2NC(=O)Nc2ccc(Oc3ccnc(Nc4cc(C)c5[nH]ncc5c4)c3)c3ccccc23)c1 [Example 57] | 4.4 nM | −ve (−ve and +ve indicate that the value is below and above respectively, the no significant effect threshold, defined as 30% inhibition at 1 μg/mL at the time point indicated.) | −ve (−ve and +ve indicate that the value is below and above respectively, the no significant effect threshold, defined as 30% inhibition at 1 μg/mL at the time point indicated.)
98 nM | 5 nM | 9 nM | 1700 nM | 7.3 nM | 22.7 nM | CC(C)(C)c1cc(NC(=O)Nc2ccc(Oc3ccnc(Nc4ccc5c(c4)NC(=O)C5(C)C)n3)c3ccccc23)n(-c2ccc(OCCN3CCOCC3)cc2)n1 [Example 62, 1-(3-(tert-butyl)-1-(4-(2-morpholinoethoxy)phenyl)-1H-pyrazol-5-yl)-3-(4-((2-((3,3-dimethyl-2-oxoindolin-6-yl)amino)pyrimidin-4-yl)oxy)naphthalen-1-yl)urea] | 11.6 nM | −ve (−ve and +ve indicate that the value is below and above respectively, the no significant effect threshold, defined as 30% inhibition at 1 μg/mL at the time point indicated.) | −ve (−ve and +ve indicate that the value is below and above respectively, the no significant effect threshold, defined as 30% inhibition at 1 μg/mL at the time point indicated.)
63 nM | 10 nM | 26 nM | > 1560 nM | 1.8 nM | 2.4 nM | COc1ccc(-n2nc(C(C)(C)C)cc2NC(=O)Nc2ccc(Oc3ccnc(Nc4ccc5[nH]ccc5c4)n3)c3ccccc23)cn1 [Example 82, 1-(4-((2-((1H-indol-5-yl)amino)pyrimidin-4-yl)oxy)naphthalen-1-yl)-3-(3-(tert-butyl)-1-(6-methoxypyridin-3-yl)-1H-pyrazol-5-yl)urea] | 2.7 nM | −ve (−ve and +ve indicate that the value is below and above respectively, the no significant effect threshold, defined as 30% inhibition at 1 μg/mL at the time point indicated.) | −ve (−ve and +ve indicate that the value is below and above respectively, the no significant effect threshold, defined as 30% inhibition at 1 μg/mL at the time point indicated.)
10 nM | 107 nM | 63 nM | 3780 nM | 0.7 nM | 8.7 nM | COc1ccc(-n2nc(C(C)(C)C)cc2NC(=O)Nc2ccc(Oc3ccnc(Nc4ccc5[nH]nc(C(=O)N6CCOCC6)c5c4)n3)c3ccccc23)cn1 [Example 83, 1-(3-(tert-butyl)-1-(6-methoxypyridin-3-yl)-1H-pyrazol-5-yl)-3-(4-((2-((3-(morpholine-4-carbonyl)-1H-indazol-5-yl)amino)pyrimidin-4-yl)oxy)naphthalen-1-yl)urea] | 2.9 nM | −ve (−ve and +ve indicate that the value is below and above respectively, the no significant effect threshold, defined as 30% inhibition at 1 μg/mL at the time point indicated.) | −ve (−ve and +ve indicate that the value is below and above respectively, the no significant effect threshold, defined as 30% inhibition at 1 μg/mL at the time point indicated.)
5 nM | 2 nM | 2 nM | 203 nM | 0.4 nM | 0.8 nM | COc1ccc(-n2nc(C(C)C)cc2NC(=O)Nc2ccc(Oc3ccnc(Nc4ccc5[nH]nc(OCCN6CCOCC6)c5c4)n3)c3ccccc23)cc1 [Example 44, 1-(3-isopropyl-1-(4-methoxyphenyl)-1H-pyrazol-5-yl)-3-(4-((2-((3-(2-morpholinoethoxy)-1H-indazol-5-yl)amino)pyrimidin-4-yl)oxy)naphthalen-1-yl)urea] | 1.4 nM | −ve (−ve and +ve indicate that the value is below and above respectively, the no significant effect threshold, defined as 30% inhibition at 1 μg/mL at the time point indicated.) | −ve (−ve and +ve indicate that the value is below and above respectively, the no significant effect threshold, defined as 30% inhibition at 1 μg/mL at the time point indicated.)
